The results in this text go back to patent US7008953B2, “3, 5 Disubstituted indazole compounds, pharmaceutical compositions, and methods for mediating or inhibiting cell proliferation” (Agouron Pharmaceuticals, Inc., priority 2003, dated 2006).

Holding throughout (type): biochemical
What all share (conditions): method of Davies et al.

Assay [1] has as its target T1, serum- and glucocorticoid-induced kinase (SGK) (Homo sapiens, UniProt O00141, S422D).
T1 sequence (O00141 61-431 S422D limits assumed): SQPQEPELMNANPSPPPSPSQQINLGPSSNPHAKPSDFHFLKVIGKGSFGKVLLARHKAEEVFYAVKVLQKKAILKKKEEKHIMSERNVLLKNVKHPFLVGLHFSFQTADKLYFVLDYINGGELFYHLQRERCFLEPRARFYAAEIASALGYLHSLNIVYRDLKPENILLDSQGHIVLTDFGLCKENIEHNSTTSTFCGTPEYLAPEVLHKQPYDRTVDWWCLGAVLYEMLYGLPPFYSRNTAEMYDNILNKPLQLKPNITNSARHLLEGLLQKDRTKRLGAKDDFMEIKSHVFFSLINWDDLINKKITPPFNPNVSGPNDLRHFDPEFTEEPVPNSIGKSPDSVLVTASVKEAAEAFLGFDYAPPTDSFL
Kind of assay: Panel of protein kinases: SGK. The protocol:
(§1) The compounds of the present invention were screened against a large panel of protein kinase to determine inhibition activity for CDK as against a variety of protein kinases. The assay was conducted using methods and materials described by Davies, S et al. Specificity and Mechanism of Action of Some Commonly Used Protein Kinase Inhibitors, Biochem J. 351, 95–105 (2000), the contents of which are herein incorporated by reference. The compounds were screened against a panel of protein kinases which include AMP-activiated protein kinase (AMPK), checkpoint kinase (CHK1), casein kinases 1 and 2 (CK1 and CK2), cytoplasmic tyrosine kinase (CSK), dual serine/threonine/tyrosine kinase (DYRK1A), glycogen synthase kinase 3 (GSK3B), c-Jun N-terminal kinase (JNK), lymphocyte kinase (LCK), mitogen-activated protein kinases 2, K-1a, K2 (MAPK2, MAPKAP-K1a, and MAPKAP-K2), MAPK kinase (MKK1, also called MEK), mitogen and stress-activated protein kinase 1 (MSK1), never-in-mitosis kinase 6 (NEK6), p70 ribosomal protein S6 kinase (P70s6K1), 3-phosphoinositide-dependent protein kinase 1 (PDK1), phosphorylase kinase (PHK), protein kinase A (PKA), protein kinase B (PKB, also called Akt), protein kinase C (PKCa), p38-regulated/activated kinase (PRAK), Rho-dependent protein kinase (ROCK-II), stress-activated protein kinase 2a, 2b, 3 and 4 (SAPK-2A or p38, SAPK-2b or p38β2, SAPK3 or p38γ, SAPK4 or p38δ, respectively), and serum- and glucocorticoid-induced kinase (SGK). Compound activity was grouped into categories of weak (<50%), moderate (50–75%) and strong inhibition (>75%).

Assay [2] deals with phosphorylase kinase (PHK) (Oryctolagus cuniculus, UniProt P00518). The assay is described as follows: Panel of protein kinases: PHK. The protocol: as §1
Another assay addresses T2, checkpoint kinase (CHK1) (Homo sapiens, UniProt O14757).
T2 sequence (O14757 1-476): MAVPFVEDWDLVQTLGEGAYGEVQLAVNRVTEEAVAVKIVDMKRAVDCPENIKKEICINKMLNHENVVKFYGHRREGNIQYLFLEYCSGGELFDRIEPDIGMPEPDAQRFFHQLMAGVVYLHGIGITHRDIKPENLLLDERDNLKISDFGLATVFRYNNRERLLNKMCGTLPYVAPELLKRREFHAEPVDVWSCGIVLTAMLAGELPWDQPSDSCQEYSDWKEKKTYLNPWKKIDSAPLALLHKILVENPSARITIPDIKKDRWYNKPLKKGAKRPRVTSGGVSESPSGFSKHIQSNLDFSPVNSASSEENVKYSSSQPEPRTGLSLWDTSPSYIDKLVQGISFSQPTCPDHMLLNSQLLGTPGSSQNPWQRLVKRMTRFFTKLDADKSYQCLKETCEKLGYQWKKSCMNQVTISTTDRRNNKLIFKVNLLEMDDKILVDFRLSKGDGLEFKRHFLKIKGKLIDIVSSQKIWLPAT
The assay is described as follows: Panel of protein kinases: CHK1. The protocol: as §1

Assay [3] concerns the target dual serine/threonine/tyrosine kinase (DYRK1A) (Homo sapiens, UniProt Q13627). The assay is described as follows: Panel of protein kinases: DYRK1A. The protocol:
as §1

In assay [4] the target is cytoplasmic tyrosine kinase (CSK) (Homo sapiens, UniProt P41240). Kind of assay: Panel of protein kinases: CSK. The protocol:
as §1

The target of assay [5] is mitogen-activated protein kinase 2 (MAPK2) (Homo sapiens, UniProt P28482). The assay is described as follows: Panel of protein kinases: MAPK2. The protocol: as §1
The target in assay [6] is T3, stress-activated protein kinase 3 (SAPK3 or p38γ) (Homo sapiens, UniProt P53778).
T3 sequence (P53778 1-367): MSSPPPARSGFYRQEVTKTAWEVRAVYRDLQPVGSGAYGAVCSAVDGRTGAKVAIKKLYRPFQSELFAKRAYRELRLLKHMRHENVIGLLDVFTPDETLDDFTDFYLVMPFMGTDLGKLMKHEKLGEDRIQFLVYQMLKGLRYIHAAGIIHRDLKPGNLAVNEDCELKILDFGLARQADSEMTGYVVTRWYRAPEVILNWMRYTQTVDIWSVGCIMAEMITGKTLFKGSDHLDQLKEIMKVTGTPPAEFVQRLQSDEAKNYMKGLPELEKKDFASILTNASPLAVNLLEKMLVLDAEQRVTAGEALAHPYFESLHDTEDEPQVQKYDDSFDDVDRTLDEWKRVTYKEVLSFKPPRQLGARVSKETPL
The assay is described as follows: Panel of protein kinases: SAPK3. The protocol:
as §1

Assay [7] addresses stress-activated protein kinase 2b (SAPK-2b or p38β2) (Homo sapiens, UniProt Q15759). The assay is described as follows: Panel of protein kinases: SAPK-2b. The protocol: as §1
Assay [8] deals with T4, 3-phosphoinositide-dependent protein kinase 1 (PDK1) (Homo sapiens, UniProt O15530).
T4 sequence (O15530 1-556): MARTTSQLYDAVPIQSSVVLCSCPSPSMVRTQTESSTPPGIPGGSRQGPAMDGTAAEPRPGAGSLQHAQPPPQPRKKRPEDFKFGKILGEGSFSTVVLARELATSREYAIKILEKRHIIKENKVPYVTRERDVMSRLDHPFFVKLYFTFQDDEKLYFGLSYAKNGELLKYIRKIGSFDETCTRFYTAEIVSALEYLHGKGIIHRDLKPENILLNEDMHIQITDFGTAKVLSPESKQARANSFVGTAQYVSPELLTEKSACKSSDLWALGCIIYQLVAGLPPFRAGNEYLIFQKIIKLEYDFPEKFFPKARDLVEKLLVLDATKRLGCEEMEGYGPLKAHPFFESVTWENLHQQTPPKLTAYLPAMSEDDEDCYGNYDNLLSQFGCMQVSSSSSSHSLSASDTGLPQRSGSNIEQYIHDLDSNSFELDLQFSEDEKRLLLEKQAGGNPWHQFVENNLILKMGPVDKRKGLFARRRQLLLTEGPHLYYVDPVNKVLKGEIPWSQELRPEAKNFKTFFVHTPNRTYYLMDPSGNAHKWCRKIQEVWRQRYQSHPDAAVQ
Kind of assay: Panel of protein kinases: PDK1. The protocol: as §1

Sequence of stress-activated protein kinase 2b (SAPK-2b or p38β2) (Q15759 whole entry): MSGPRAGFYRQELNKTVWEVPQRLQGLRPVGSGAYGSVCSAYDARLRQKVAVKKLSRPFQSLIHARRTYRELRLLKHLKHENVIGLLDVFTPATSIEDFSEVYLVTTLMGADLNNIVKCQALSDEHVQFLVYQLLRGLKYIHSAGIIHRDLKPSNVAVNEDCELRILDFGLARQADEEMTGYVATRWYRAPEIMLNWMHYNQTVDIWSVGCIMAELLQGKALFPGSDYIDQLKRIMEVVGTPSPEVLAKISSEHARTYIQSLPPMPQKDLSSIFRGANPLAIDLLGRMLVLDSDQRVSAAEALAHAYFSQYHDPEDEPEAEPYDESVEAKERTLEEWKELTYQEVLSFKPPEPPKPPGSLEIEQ
Sequence of cytoplasmic tyrosine kinase (CSK) (P41240 whole entry, species assumed): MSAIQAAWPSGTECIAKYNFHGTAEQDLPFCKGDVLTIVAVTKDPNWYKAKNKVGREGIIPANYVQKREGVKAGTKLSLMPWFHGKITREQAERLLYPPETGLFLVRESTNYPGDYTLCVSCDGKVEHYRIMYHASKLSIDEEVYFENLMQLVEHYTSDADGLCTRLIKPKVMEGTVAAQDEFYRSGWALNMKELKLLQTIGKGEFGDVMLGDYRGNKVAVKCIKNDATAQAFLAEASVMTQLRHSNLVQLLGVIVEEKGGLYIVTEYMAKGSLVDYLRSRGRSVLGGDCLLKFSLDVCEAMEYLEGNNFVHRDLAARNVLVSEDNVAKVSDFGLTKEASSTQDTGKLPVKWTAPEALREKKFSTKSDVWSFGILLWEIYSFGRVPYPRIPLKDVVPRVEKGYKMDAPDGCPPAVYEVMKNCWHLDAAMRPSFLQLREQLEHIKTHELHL
Sequence of mitogen-activated protein kinase 2 (MAPK2) (P28482 whole entry): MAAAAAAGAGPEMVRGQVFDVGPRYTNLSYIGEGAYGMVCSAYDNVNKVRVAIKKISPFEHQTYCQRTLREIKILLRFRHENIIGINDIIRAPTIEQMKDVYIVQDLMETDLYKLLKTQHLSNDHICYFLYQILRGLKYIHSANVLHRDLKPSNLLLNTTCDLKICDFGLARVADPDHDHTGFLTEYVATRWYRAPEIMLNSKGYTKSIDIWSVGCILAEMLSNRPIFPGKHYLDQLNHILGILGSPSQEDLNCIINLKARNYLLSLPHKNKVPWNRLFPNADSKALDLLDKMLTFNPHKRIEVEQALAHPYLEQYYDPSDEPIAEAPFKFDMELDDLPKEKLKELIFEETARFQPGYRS

`CCNCc1cncc(-c2ccc3[nH]nc(-c4nc5c(NC(C)=O)cccc5[nH]4)c3c2)c1C` [D]: in [1], the “Kinase SGK inhibition” value is on record as “− (Weak inhibition <50%)”. In [2], the “Kinase PHK inhibition” value is reported as “− (Weak inhibition <50%)”. Moreover, the “Kinase CHK1 inhibition” value at checkpoint kinase (CHK1) was “− (Weak inhibition <50%)”. Also, the “Kinase DYRK1A inhibition” value in assay [3] was “++ (Strong inhibition >75%)”. Further, the “Kinase CSK inhibition” value in assay [4] is given as “− (Weak inhibition <50%)”. Also, the “Kinase MAPK2 inhibition” value in assay [5] is listed as “− (Weak inhibition <50%)”. Also, in assay [6], the “Kinase SAPK3 inhibition” value is “− (Weak inhibition <50%)”. In addition, the “Kinase SAPK-2b inhibition” value in assay [7] is recorded as “− (Weak inhibition <50%)”. In addition, the “Kinase PDK1 inhibition” value in assay [8] was “− (Weak inhibition <50%)”.

For `CCNCc1cncc(-c2ccc3[nH]nc(-c4nc5c(SC)cccc5[nH]4)c3c2)c1C` [C], in [1], the “Kinase SGK inhibition” value is given as “− (Weak inhibition <50%)”. Besides, the “Kinase PHK inhibition” value in assay [2] was “+ (Moderate inhibition 50–75%)”. Also, the “Kinase CHK1 inhibition” value at checkpoint kinase (CHK1) is reported as “− (Weak inhibition <50%)”. Besides, the “Kinase DYRK1A inhibition” value in assay [3] is “++ (Strong inhibition >75%)”. In addition, the “Kinase CSK inhibition” value in [4] is reported as “− (Weak inhibition <50%)”. The “Kinase MAPK2 inhibition” value in assay [5] is on record as “− (Weak inhibition <50%)”. In [6], the “Kinase SAPK3 inhibition” value is “− (Weak inhibition <50%)”. In [7], the “Kinase SAPK-2b inhibition” value is given as “− (Weak inhibition <50%)”. Moreover, in [8], the “Kinase PDK1 inhibition” value is on record as “− (Weak inhibition <50%)”.

Turning to `CCNCc1cncc(-c2ccc3[nH]nc(-c4nc5c(C(=O)NC)cccc5[nH]4)c3c2)c1C` [B], the “Kinase SGK inhibition” value in assay [1] is recorded as “+ (Moderate inhibition 50–75%)”. Besides, in assay [2], the “Kinase PHK inhibition” value is “+ (Moderate inhibition 50–75%)”. Also, the “Kinase CHK1 inhibition” value at checkpoint kinase (CHK1) is recorded as “+ (Moderate inhibition 50–75%)”. For the same compound, the “Kinase DYRK1A inhibition” value in assay [3] is recorded as “++ (Strong inhibition >75%)”. The “Kinase CSK inhibition” value in assay [4] is “− (Weak inhibition <50%)”. Also, in assay [5], the “Kinase MAPK2 inhibition” value is given as “− (Weak inhibition <50%)”. Besides, the “Kinase SAPK3 inhibition” value in assay [6] is “− (Weak inhibition <50%)”. The “Kinase SAPK-2b inhibition” value in assay [7] is given as “− (Weak inhibition <50%)”. Moreover, in [8], the “Kinase PDK1 inhibition” value is “− (Weak inhibition <50%)”.

In the case of `CCNCc1cncc(-c2ccc3[nH]nc(-c4nc5cc(F)ccc5[nH]4)c3c2)c1C` [Example 2, Ethyl-{5-[3-(5-fluoro-1H-benzoimidazol-2-yl)-1H-indazol-5-yl]-4-methyl-pyridin-3-ylmethyl}-amine], the “Kinase SGK inhibition” value in [1] is “− (Weak inhibition <50%)”. Further, the “Kinase PHK inhibition” value in assay [2] is “++ (Strong inhibition >75%)”. Also, the “Kinase CHK1 inhibition” value on checkpoint kinase (CHK1) is listed as “− (Weak inhibition <50%)”. Moreover, the “Kinase DYRK1A inhibition” value in assay [3] was “++ (Strong inhibition >75%)”. Besides, in assay [4], the “Kinase CSK inhibition” value is listed as “− (Weak inhibition <50%)”. Further, in [5], the “Kinase MAPK2 inhibition” value is “− (Weak inhibition <50%)”. Moreover, the “Kinase SAPK3 inhibition” value in assay [6] is reported as “− (Weak inhibition <50%)”. For the same compound, the “Kinase SAPK-2b inhibition” value in assay [7] is reported as “− (Weak inhibition <50%)”. The “Kinase PDK1 inhibition” value in [8] is reported as “− (Weak inhibition <50%)”.

Regarding `CCNCc1cncc(-c2ccc3[nH]nc(-c4nc5c(F)cc(F)cc5[nH]4)c3c2)c1C` [Example 1, {5-[3-(4,6-Difluoro-1H-benzoimidazol-2-yl)-1H-indazol-5-yl]-4-methyl-pyridin-3-ylmethyl}-ethyl-amine], the “Kinase SGK inhibition” value in [1] is reported as “− (Weak inhibition <50%)”. In addition, in assay [2], the “Kinase PHK inhibition” value was “+ (Moderate inhibition 50–75%)”. On checkpoint kinase (CHK1), the “Kinase CHK1 inhibition” value is on record as “− (Weak inhibition <50%)”. In addition, the “Kinase DYRK1A inhibition” value in assay [3] is reported as “++ (Strong inhibition >75%)”. The “Kinase CSK inhibition” value in assay [4] was “− (Weak inhibition <50%)”. Besides, the “Kinase MAPK2 inhibition” value in assay [5] was “− (Weak inhibition <50%)”. Besides, in assay [6], the “Kinase SAPK3 inhibition” value is reported as “− (Weak inhibition <50%)”. Besides, in assay [7], the “Kinase SAPK-2b inhibition” value was “− (Weak inhibition <50%)”. In assay [8], the “Kinase PDK1 inhibition” value is “− (Weak inhibition <50%)”.

Turning to `CCNCc1cncc(-c2ccc3[nH]nc(-c4nc5ccccc5[nH]4)c3c2)c1C` [A], the “Kinase SGK inhibition” value in assay [1] was “+ (Moderate inhibition 50–75%)”. The “Kinase PHK inhibition” value in [2] is recorded as “++ (Strong inhibition >75%)”. In addition, the “Kinase CHK1 inhibition” value on checkpoint kinase (CHK1) was “+ (Moderate inhibition 50–75%)”. In addition, the “Kinase DYRK1A inhibition” value in assay [3] is “++ (Strong inhibition >75%)”. Also, the “Kinase CSK inhibition” value in assay [4] is listed as “− (Weak inhibition <50%)”. In assay [5], the “Kinase MAPK2 inhibition” value is given as “− (Weak inhibition <50%)”. Besides, the “Kinase SAPK3 inhibition” value in assay [6] is on record as “− (Weak inhibition <50%)”. In assay [7], the “Kinase SAPK-2b inhibition” value is reported as “− (Weak inhibition <50%)”. Also, in [8], the “Kinase PDK1 inhibition” value is reported as “+ (Moderate inhibition 50–75%)”.
